Results from patent US20230023802A1, “STABILIZED DRUG FORMULATIONS AND METHODS OF LOADING DRUG DELIVERY IMPLANTS” (THE METHODIST HOSPITAL SYSTEM, priority 2019, published 2023).
Where a name gives a salt, the structure may show the parent alone. Read-outs that look alike come from different tables or passages of the source.

Key:
[1] = after 1 month, implant with 200 nm membrane in PBS sink, normalized to first time point
Procedure: Data are normalized to the values of day 1.
Urocanic acid was then tested. […] This formulation was loaded into an implant equipped with a 200 nm membrane. The implant was placed in 22 mL solution of PBS (the sink solution). The sink solution was replaced every 40 hours with fresh PBS. […] All results were normalized by the results of the first time point to compensate for the degradation that takes place in the sink solution.

physchem = conditions: pH 7.4
[2] = pH=5.3

## CC(C)OC(=O)[C@H](C)N[P@](=O)(CO[C@H](C)Cn1cnc2c(N)ncnc21)Oc1ccccc1 [tenofovir alafenamide fumarate]
[1]
  percentage of tenofovir alafenamide in the released mixture of tenofovir derivatives: 45%

## CC(C)OC(=O)[C@H](C)N[P@](=O)(CO[C@H](C)Cn1cnc2c(N)ncnc21)Oc1ccccc1 [tenofovir alafenamide]
[1]; listed as free base tenofovir alafenamide
  percentage of tenofovir alafenamide in the released mixture of tenofovir derivatives: 82%
physchem
  half-life: < 48 h
[2]
  hydrolysis half-life (t1/2): over 4 months
